# “Also recorded” adds a separate entry of the source. Where two headings read alike, the source gives them in different places. Marks after values point to notes of the source that are not given here.
# How the values were obtained:
# [1] = cited from earlier work
# [2] = tested on: c-Src and PZR tyrosyl phosphorylation in the heart of NS mice; experiment: Phosphorylation in heart tissue after i.p. dasatinib, immunoblot; type: in vivo
# Procedure: Male Ptpn11D61G/+ mice were injected i.p. with dasatinib at the indicated dose or DMSO control, 24h later mice were sacrificed, heart tissue harvested and immunoblotted using the indicated antibodies.
# FIG. 13i is an image showing heart tissue immunoblotted with anti-Shp2, p-ERK1/2, ERK1/2, p-Src (Y416), Src, p-PZR (Y263) and PZR antibodies. […] Heart tissue was isolated after 18 hr and tissue lysates were immunoblotted.
# FIG. 18a is an image showing heart tissue immunoblotted with p-Raf1 (Y341), Raf1, p-MEK1/2, MEK1/2, p-INK, INK, p-p38, p38, p-Akt (S473) and Akt antibodies. Heart tissue was isolated after 18 hr and tissue lysates were immunoblotted.
# [3] = tested on: WT and Ptpn11^D61G/+ mice; settings: for % EF (ejection fraction) / % FS (fractional shortening) / IVS, d (Intraventricular septum wall thickness, diastole) / IVS, s (Intraventricular septum wall thickness, systole) / LV vol, d (left ventricle volume, diastole) / LV vol, s (left ventricle volume, systole) / LVID, d (left ventricular internal dimension, diastole) / LVID, s (left ventricular internal dimension, systole) / LVPW, d (left ventricular posterior wall thickness, diastole) / LVPW, s (left ventricular posterior wall thickness, systole): n = 8, Mean ± SEM;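 for all read-outs here: echocardiography in isoflurane-anesthetized mice, M-mode tracings averaged over three to six heartbeats, FS derived from diastolic and systolic LVID, vehicle-injected mice as control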
# Procedure: Echocardiographic Studies—Cardiac dimensions and function were analyzed by echocardiography using a Vevo 770 console, Mice were lightly anesthetized with inhaled isoflurane (0.2% in O2). All measurements were obtained from three to six consecutive cardiac cycles, and the averaged values used for analysis. Interventricular septum wall (IVS), left ventricular internal dimension (LVID) and left ventricular posterior wall thickness (LVPW) in both end-diastolic (d), end-systolic (s) were measured from the and M-mode tracings. Diastolic measurements were performed using the leading-edge method of the American Society of Echocardiography. For TM-mode measurements, left ventricular end-diastolic volume (LV vol,d) and end-systolic volume (LV vol,s) were calculated. Ejection fraction percentage (EF) was calculated as [(LVvol,d−LVvol,s)/VLvol,d]×100, and fractional shortening percentage was calculated as [(LVID,d−LVID,s)/LVID,d]×100.
# Animal Handling—Ptpn11^D61G/+ mice were provided from Dr. Benjamin Neel (University of Toronto, Toronto) and were genotyped as described previously^9. Briefly, Ptpn11^D61G/+ male mice were crossed with wild type C75BL/6×SV 129 female mice and their offspring were genotyped by PCR and digestion with AgeI for the D61G allele. Dasatinib (Biovision) was suspended in vehicle (1% DMSO in phosphate buffer saline), For prenatal treatment, dasatinib was injected i.p. (0.1 mg/kg body weight) into pregnant mice daily, beginning on gestational day 7.5 (E7.5) continuing (in nursing females) until postnatal day 9. Vehicle-injected mice served as control. Beginning at P10, dasatinib or vehicle alone was injected (i.p.) directly into pups daily, until 8-weeks after birth. For postnatal treatment, dasatinib was injected (i.p.) into pups at P10, until 6-weeks after birth; injection was discontinued for 2-weeks.
# Echocardiography—Mice were anesthetized in a sealed plastic chamber with 1% isofurane in oxygen until immobile, and then were transferred onto a heated procedure board (37° C.). Animal were kept anesthetized with 1% isoflurane supplied by a nose cone connected to the isoflurane vaporizer during the entire procedure. The scan head was placed on the chest of the mouse and stable image signals (both B mode and M mode) were acquired and data analyzed with Vevo 770 (VisualSonics). Systolic and distolic left ventricle peripheral wall thickness, chamber diameter and interventricular wall thickness were measured with M mode image. Percentage of ejection fraction (EF) and fractional shortening (FS) were calculated.
# [4] = tested on: Ptpn11^D61G/+ mice; experiment: Heart tissue immunoblot for SERCA2A, Troponin I, Troponin T; type: in vivo; settings: postnatal dasatinib; NS mice
# Text: Representative traces of cardiomyocyte dynamics for calcium transient traces (top) and their corresponding sarcomere leng shortening traces (bottom). FIG. 16b is a graph showing a summary of the data of relative calcium release (Rmag Ca^2+). FIG. 16c is a graph showing the fraction of sarcomere shortening (n=111˜162 cells from 3 mice for each group). FIG. 16d is an image showing heart tissue immunoblotted with anti-SERCA2A, Troponin I (tTnI), Troponin T (tTnT) and Tubulin antibodies. […] FIG. 16e is a graph showing SERCA2A expression. FIG. 16f is a graph showing Troponin I expression. FIG. 16g is a graph showing Troponin T. Expression was statistically assessed after normalization with tubulin (n=6 for each group).
# Immunoprecipitation and Immunoblotting—Cells or heart tissue were lysed on ice in lysis buffer (25 mM Tris-HCl, pH 7.4, 136 mM NaCl, 1 mM CaCl2, 1 mM MgCl2, 1% Nonidet P-40, 1 mM Na3VO4, 10 mM NaF, 1 mM benzamidine, 1 mM PMSF, 1 μg/ml pepstatin A, 5 μg/ml aprotinin, and 5 μg/ml leupeptin). Cell or tissue lysates were incubated at 4° C. for 30 min and clarified by centrifugation at 14,000 rpm at 4° C. for 10 min. Protein concentration was determined using the BCA reagent according to the manufacturer's instructions (Pierce). For immunoprecipitations, 500 μg of lysate was incubated with 1 μg of indicated antibodies at 4° C. for overnight. […]
# [5] = tested on: Ptpn11^D61G/+ mice; experiment: Quantitative RT-PCR of heart RNA, NS mice, postnatal dasatinib; type: in vivo; settings: P56
# Procedure: FIG. 15, comprising FIG. 15a-15j, is a panel of images showing cardiomyopathy and cardiac fibrosis in Ptpn11^D61G/+ mice rescued by dasatinib. […] FIG. 15e is a graph showing relative expression of fibrosis marker gene, Col1a2. […] FIG. 15f is a graph showing relative expression of fibrosis marker gene, Col3a1. FIG. 15g is a graph showing relative expression of cardiac fetal gene, Myh6 (αMHC). FIG. 15h is a graph showing relative expression of cardiac fetal gene, Myh7 (βMHC). FIG. 15i is a graph showing relative expression of cardiac fetal gene, Anf. FIG. 15j is a graph showing relative expression of cardiac fetal gene, Bnp. The genes were measured by quantitative RT-PCR (n=6 for each group). […] (Two-way ANOVA test).
# RNA Extraction and Quantitative Real-Time PCR Analysis—RNA was isolated from mice heart using an RNeasy kit (Qiagen, CA) according to the manufacturer's instructions. A total of 1 μg RNA was reverse transcribed to generate cDNA using a reverse transcriptase PCR kit (Applied Biosystems, CA). Real-time quantitative PCR was carried out in triplicate using the Applied Biosystems 7500 Fast real-time PCR system and SYBR green gene expression master mix with following primer pairs.
# All relative gene expression levels were analyzed using the ΔCT method and normalized to 18S rRNA expression.
# [6] = tested on: Ptpn11^D61G/+ X WT breeder; experiment: Progeny from prenatal dasatinib treated Ptpn11D61G/+ X WT breeder
# Procedure: Vehicle-injected mice served as control.
# Dasatinib was administered into pregnant mothers and amelioration of cardiac defects in NS mice was assessed. Dasatinib was administered at 0.1, 0.5 or 1.0 mg/kg daily interperitoneally into wild type pregnant mice intercrossed with NS mice, beginning at embryonic day 7 until postnatal day 9 (in nursing females). After postnatal day 10 (P10), dasatinib injections resumed directly into individual pups daily until 8-weeks (P56) after birth (FIG. 14a).
# [7] = prenatal 0.1 mg/kg i.p. daily from E7.5, Ptpn11D61G/+ mice, P42
# [8] = prenatal 0.1 mg/kg i.p. daily from E7.5, WT mice, P42
# [9] = prenatal 0.1 mg/kg i.p. daily from E7.5 continued to P56, Ptpn11D61G/+ mice, P56
# [10] = prenatal 0.1 mg/kg i.p. daily from E7.5 continued to P56, WT mice, P56
smiles,measurement,setting,value
"Cc1nc(Nc2ncc(C(=O)Nc3c(C)cccc3Cl)s2)cc(N2CCN(CCO)CC2)n1.O [Dasatinib, N-(2-chloro-6-methylphenyl)-2-[[6-[4-(2-hydroxyethyl)-1-piperazinyl]-2-methyl-4-pyrimidinyl]amino]-5-thiazole carboxamide monohydrate]",dose of therapeutic effects in humans,[1]; humans,~2 mg/kg
same,equivalent dose in mice of the human therapeutic dose,[1]; mice equivalent,~24 mg/kg
same,"ERK1/2, Raf-1, MEK1, p38 MAPK and JNK phosphorylation in the heart","[2]; 3-week-old NS mice, dasatinib 0.1-0.5 mg/kg i.p.","neither ERK1/2 phosphorylation (FIGS. 13i-13l), Raf-1, MEK1, p38 MAPK, nor JNK were affected"
same,dose sufficient to significantly inhibit both c-Src and PZR tyrosyl phosphorylation in the heart,"[2]; 3-week-old NS mice, i.p., heart isolated after 18 hr",0.5 mg/kg
same,fold lower dose than effective chemotherapeutic doses that can inhibit PZR tyrosyl phosphorylation in the heart,"[2]; NS mice, chemotherapeutic approx. 1.4-2.0 mg/kg/day",up to 250 fold
same,PZR tyrosyl phosphorylation in heart tissue,"[2]; male Ptpn11D61G/+ mice, i.p., 24 h",effective at reducing
same,% EF (ejection fraction),[3]; [7],62.62 ± 2.75 %
same,% FS (fractional shortening),[3]; [7],34.29 ± 2.09 %
same,"IVS, d (Intraventricular septum wall thickness, diastole)",[3]; [7],0.65 ± 0.06 mm
same,"IVS, s (Intraventricular septum wall thickness, systole)",[3]; [7],0.97 ± 0.10 mm
same,"LV vol, d (left ventricle volume, diastole)",[3]; [7],60.93 ± 3.75 mm^3
same,"LV vol, s (left ventricle volume, systole)",[3]; [7],24.21 ± 1.56 mm^3
same,"LVID, d (left ventricular internal dimension, diastole)",[3]; [7],3.61 ± 0.12 mm
same,"LVID, s (left ventricular internal dimension, systole)",[3]; [7],2.32 ± 0.12 mm
same,"LVPW, d (left ventricular posterior wall thickness, diastole)",[3]; [7],0.70 ± 0.04 mm
same,"LVPW, s (left ventricular posterior wall thickness, systole)",[3]; [7],1.12 ± 0.07 mm
same,% EF (ejection fraction),[3]; [8],64.24 ± 2.52%
same,% FS (fractional shortening),[3]; [8],34.70 ± 1.82%
same,"IVS, d (Intraventricular septum wall thickness, diastole)",[3]; [8],0.67 ± 0.04 mm
same,"IVS, s (Intraventricular septum wall thickness, systole)",[3]; [8],1.08 ± 0.09 mm
same,"LV vol, d (left ventricle volume, diastole)",[3]; [8],67.51 ± 2.54 mm^3
same,"LV vol, s (left ventricle volume, systole)",[3]; [8],22.26 ± 1.95 mm^3
same,"LVID, d (left ventricular internal dimension, diastole)",[3]; [8],3.93 ± 0.08 mm
same,"LVID, s (left ventricular internal dimension, systole)",[3]; [8],2.49 ± 0.09 mm
same,"LVPW, d (left ventricular posterior wall thickness, diastole)",[3]; [8],0.76 ± 0.05 mm
same,"LVPW, s (left ventricular posterior wall thickness, systole)",[3]; [8],1.13 ± 0.04 mm
same,% EF (ejection fraction),[3]; [9],51.83 ± 1.60%
same,% FS (fractional shortening),[3]; [9],26.22 ± 1.01%
same,"IVS, d (Intraventricular septum wall thickness, diastole)",[3]; [9],0.70 ± 0.03 mm
same,"IVS, s (Intraventricular septum wall thickness, systole)",[3]; [9],1.02 ± 0.05 mm
same,"LV vol, d (left ventricle volume, diastole)",[3]; [9],73.00 ± 3.42 mm^3
same,"LV vol, s (left ventricle volume, systole)",[3]; [9],37.43 ± 2.08 mm^3
same,"LVID, d (left ventricular internal dimension, diastole)",[3]; [9],4.06 ± 0.11 mm
same,"LVID, s (left ventricular internal dimension, systole)",[3]; [9],3.08 ± 0.07 mm
same,"LVPW, d (left ventricular posterior wall thickness, diastole)",[3]; [9],0.68 ± 0.02 mm
same,"LVPW, s (left ventricular posterior wall thickness, systole)",[3]; [9],0.93 ± 0.06 mm
same,% EF (ejection fraction),[3]; [10],50.96 ± 2.38 %
same,% FS (fractional shortening),[3]; [10],25.84 ± 1.47 %
same,"IVS, d (Intraventricular septum wall thickness, diastole)",[3]; [10],0.69 ± 0.04 mm
same,"IVS, s (Intraventricular septum wall thickness, systole)",[3]; [10],1.07 ± 0.05 mm
same,"LV vol, d (left ventricle volume, diastole)",[3]; [10],79.32 ± 1.22 mm^3
same,"LV vol, s (left ventricle volume, systole)",[3]; [10],40.34 ± 1.60*** mm^3
same,"LVID, d (left ventricular internal dimension, diastole)",[3]; [10],4.21 ± 0.07 mm
same,"LVID, s (left ventricular internal dimension, systole)",[3]; [10],3.04 ± 0.10 mm
same,"LVPW, d (left ventricular posterior wall thickness, diastole)",[3]; [10],0.71 ± 0.04 mm
same,"LVPW, s (left ventricular posterior wall thickness, systole)",[3]; [10],0.95 ± 0.05 mm
same,cardiac function (EF and FS),"[3]; prenatal 0.1 mg/kg, NS mice, P42, monohydrate",improves cardiac function; also recorded: completely restored to wild type parameters; also recorded: complete restoration of cardiac function
same,cardiac failure on continued administration,"[3]; prenatal regimen continued an additional 2 weeks to P56, wild type and NS mice",induced cardiac failure
same,SERCA2A protein expression in cardiac tissue,[4],completely normalized
same,TnT and TnI expression levels in heart,[4],returned to those equivalent to vehicle-treated wild type mice
same,Anp and Bnp mRNA expression,[5],completely rescued
same,MYH6 expression,[5],equivalent level of MYH6 expression in wild type and NS mice
same,MYH7 expression,[5],completely normalized
same,mRNA expression of fibrotic genes Col1a2 and Col3a1,[5],reduced mRNA expression levels
same,adverse effects,"[6]; mouse, in vivo, ip, 0.1 mg/kg",no observable adverse effects
same,Dead pups,"[6]; prenatal dasatinib 0.1 mg/kg, number of pups",4
same,embryonic lethality,[6]; prenatal treatment at 0.5 and 1.0 mg/kg/per day i.p.,embryonic lethality

# — US10471059B2, “Compositions and methods of using tyrosine kinase inhibitors” (YALE UNIVERSITY, priority 2015, dated 2019)
